# Reference: patent US9890357B2, “Method for inducing differentiation of human pluripotent stem cells into intermediate mesoderm cells” (Kyoto University, priority 2011, dated 2018)
# Tests used:
# [1] = test system: OSR1-GFP reporter iPS cells; experiment: Induction of differentiation into intermediate mesoderm cells (novel induction method 1), flow cytometry using OSR1 (GFP) expression; assay type: cell-based, human; conditions: novel induction method 1: 2 days 3 micromolar CHIR99021 + 10 micromolar Y-27632, then 8 days 1 micromolar retinoic acid derivative
# Description: (§1) Human iPS cells (201B7) provided by Dr. Yamanaka at Kyoto University were cultured by the known method (Takahashi, K. et al., Cell 131: 861-872). Subsequently, a GFP-PGK-Neo cassette was inserted into a site downstream of the OSR1 initiation codon of a BAC clone (RP11-458J18) (BACPAC RESOURCES) using pRed/ET (Gene Bridges GmbH), so as to prepare a OSR1-GFP BAC transgene. The resulting modified BAC clone was introduced into the human iPS cell and the OSR1-GFP reporter iPS cell line expressing GFP in conjunction with the expression of endogenous OSR1 was established.
# (§2) The above OSR1-GFP reporter iPS cells were cultured to confluence on a 10-cm dish using SNL cells as feeder cells (McMahon, A. P. and Bradley, A., 1990, Cell 62; 1073-1085). A CTK solution was added to the cells for dissociation, the feeder cells were removed, and the iPS cells were dispersed into single cells with the addition of Accutase.
# Subsequently, the iPS cells were suspended in a DMEM/F12 medium containing Glutamax, 2% FBS, and PenStrep, and 10 micromolar Y-27632 and 3 micromolar CHIR99021 were added thereto. Subsequently, the cell suspension was transferred to a dish coated with 0.1% gelatin, and culture was conducted for 2 days. […]
# After the cell culture had been conducted for 8 days, the cells were analyzed by flow cytometry (FACS) using OSR1 expression as an indicator.
# [2] = test system: OSR1-GFP reporter iPS cells; experiment: Induction of differentiation into intermediate mesoderm cells (novel induction methods 2 and 3), flow cytometry using OSR1 (GFP) expression; time course; assay type: cell-based, human; conditions: for time at which growth of OSR1 positive cells had plateau after the medium change: cell numbers measured 3, 5, 8 or 12 days after change to medium with 1 micromolar retinoic acid derivative
# Description: as §1, §2
# Subsequently, the iPS cells were suspended in a DMEM/F12 medium containing Glutamax, 2% FBS, and PenStrep, and a combination of (1) 10 micromolar Y-27632 (ROCK inhibitor), 3 micromolar CHIR99021, and 1 micromolar AM580 or (2) 10 micromolar Y-27632 (ROCK inhibitor), 3 micromolar CHIR99021, and 1 micromolar TTNPB was added thereto. Subsequently, the cell suspension was transferred to a dish coated with 0.1% gelatin, and culture was conducted for 2 days.
# Thereafter, the medium was removed, the culture product was washed in PBS, and the iPS cells were then cultured for an additional 8 days (novel induction method 2) or 3 days (novel induction method 3) in a medium prepared by adding 1 micromolar AM580 or 1 micromolar TTNPB to a DMEM/F12 medium containing 2-mercaptoethanol, Glutamax, 10% KOCKOUT SR, 0.1 mM MEM NEAA, and PenStrep. During culture, the medium was exchanged with fresh medium once every 3 days in the case of the novel induction method 2.
# After the cell culture had been conducted for 8 or 3 days, the cells were analyzed by flow cytometry (FACS) using OSR1 expression as an indicator.
# Next, the length of time from medium change was studied. Briefly, number of OSR1 positive cells and total cells were measured at 3 days (novel induction method 3), 5 days, 8 days (novel induction method 2) or 12 days after the medium was changed to a medium prepared by adding 1 micromolar AM580 or 1 micromolar TTNPB to a DMEM/F12 medium containing 2-mercaptoethanol, Glutamax, 10% KOCKOUT SR, 0.1 mM MEM NEAA, and PenStrep (FIG. 4). The growth of OSR1 positive cells had plateau at 8 day after the medium change.
# [3] = test system: iPS cell clones (201B6, 253G1, 263G4 and 585A1) and ES cell clone (KhES1, KhES3 and H9); experiment: Level of OSR1 expression after differentiation from each iPS cell clone or ES clone (novel induction method 3); assay type: cell-based, human
# Description: White bar indicates the result using AM580. Black bar indicates the result using TTNPB. Grey bar indicate the result of conventional method without AM580 and TTNPB.
# [4] = test system: intranuclear receptor of retinoic acid (RAR); experiment: Activity through retinoic acid pathway compared with ATRA; conditions: stated as effect of the invention, no test described
# [5] = Cytotoxicity compared with ATRA; assay type: cell-based; conditions: stated as effect of the invention, no test described
# [6] = test system: OSR1-GFP reporter iPS cells; experiment: Long term culture of OSR1 (GFP) positive cells, RT-PCR and immunostaining; assay type: cell-based, human; conditions: novel induction method 3 with 1 micromolar TTNPB, then 8 days with 100 ng/ml BMP7, 100 ng/ml Wnt3a on Matrigel
# Description: The above OSR1-GFP reporter iPS cells were dissociated into single cells in a manner similar to Example 2. Subsequently, the iPS cells were suspended in a DMEM/F12 medium containing Glutamax, 2% FBS, and PenStrep, and a combination of 10 micromolar Y-27632, 3 micromolar CHIR99021, and 1 micromolar TTNPB was added thereto. Subsequently, the cell suspension was transferred to a dish coated with 0.1% gelatin, and culture was conducted for 2 days. Thereafter, the medium was removed, the culture product was washed in PBS, and the iPS cells were then cultured for an additional 3 days (novel induction method 3) in a medium prepared by adding 1 micromolar TTNPB to a DMEM/F12 medium containing 2-mercaptoethanol, Glutamax, 10% KOCKOUT SR, 0.1 mM MEM NEAA, and PenStrep. After isolating GFP positive cells from obtained cells with flow cytometer, the GFP positive cells were transferred to a dish coated with Matrigel (BD), and cultured in DMEM/F12 medium containing 10 micromolar Y-27632, 100 ng/ml BMP7, 100 ng/ml Wnt3a, 2-mercaptoethanol, Glutamax, 10% KOCKOUT SR, 0.1 mM MEM NEAA, and PenStrep for 8 days. During culture, the medium was exchanged with fresh medium once every 3 days. Obtained cells were analyzed with RT-PCR (FIG. 7A) and immunostaining (FIG. 7B). […]
# [7] = test system: OSR1-GFP reporter iPS cells; experiment: Suspention culture of OSR1 (GFP) positive cells to form sphere, immunostaining; assay type: cell-based, human; conditions: novel induction method 3 with 1 micromolar TTNPB, then suspention culture on low cell adhesion plate
# Description: The above OSR1-GFP reporter iPS cells were dispersed into single cells in a manner similar to Example 2. Subsequently, the iPS cells were suspended in a DMEM/F12 medium containing Glutamax, 2% FBS, and PenStrep, and a combination of 10 micromolar Y-27632, 3 micromolar CHIR99021, and 1 micromolar TTNPB was added thereto. Subsequently, the cell suspension was transferred to a dish coated with 0.1% gelatin, and culture was conducted for 2 days. Thereafter, the medium was removed, the culture product was washed in PBS, and the iPS cells were then cultured for an additional 3 days (novel induction method 3) in a medium prepared by adding 1 micromolar TTNPB to a DMEM/F12 medium containing 2-mercaptoethanol, Glutamax, 10% KOCKOUT SR, 0.1 mM MEM NEAA, and PenStrep. After isolating GFP positive cells from obtained cells with flow cytometer, 1×10^5 GFP positive cells were transferred to a low cell adhesion plate (PrimeSurface, Sumitomo Bakelite co.), and cultured in DMEM/F12 medium containing 10 micromolar Y-27632, 2-mercaptoethanol, Glutamax, 10% KOCKOUT SR, 0.1 mM MEM NEAA, and PenStrep in suspention to form cell sphere. During culture, the medium was exchanged with fresh medium once every 3 days.
# Obtained cells were analyzed with immunostaining (FIG. 8).
# [8] = test system: OSR1-GFP reporter iPS cells; experiment: Organ culture of OSR1 (GFP) positive cells with mouse metanephric cells, immunostaining; assay type: cell-based, human; conditions: novel induction method 3 with 1 micromolar TTNPB, then mixed with E11.5 mouse metanephric cells, 7 days floating culture
# Description: The above OSR1-GFP reporter iPS cells were dissociated into single cells in a manner similar to Example 2. Subsequently, the iPS cells were suspended in a DMEM/F12 medium containing Glutamax, 2% FBS, and PenStrep, and a combination of 10 micromolar Y-27632, 3 micromolar CHIR99021, and 1 micromolar TTNPB was added thereto. Subsequently, the cell suspension was transferred to a dish coated with 0.1% gelatin, and culture was conducted for 2 days. Thereafter, the medium was removed, the culture product was washed in PBS, and the iPS cells were then cultured for an additional 3 days (novel induction method 3) in a medium prepared by adding 1 micromolar TTNPB to a DMEM/F12 medium containing 2-mercaptoethanol, Glutamax, 10% KOCKOUT SR, 0.1 mM MEM NEAA, and PenStrep. After isolating GFP positive cells from obtained cells with flow cytometer, 1×10^4 GFP positive cells were mixed with 1×10^5 mouse metanephric cells obtained from E11.5 mouse embryo on a low cell adhesion plate (PrimeSurface). The next day, cell sphere was transferred on the Isopore™ Membrane Filters (Merck Millipore) floated on Improve MEM medium containing 10 micromolar Y-27632, 10% FBS and PenStrep. During culture, the medium was exchanged with fresh medium once every 3 days. Obtained cells were analyzed with immunostaining at 7 days after floating culture (FIG. 9).
# [9] = novel induction method 2: 2 days 3 micromolar CHIR99021 + 10 micromolar Y-27632 + 1 micromolar retinoic acid derivative, then 8 days 1 micromolar retinoic acid derivative
# [10] = novel induction method 3: 2 days 3 micromolar CHIR99021 + 10 micromolar Y-27632 + 1 micromolar retinoic acid derivative, then 3 days 1 micromolar retinoic acid derivative
SMILES,induction of OSR1-positive cells (FACS) [1],time at which growth of OSR1 positive cells had plateau after the medium change [2] [days],"induction of OSR1-positive cells (FACS) [2, 9]","induction of OSR1-positive cells (FACS) [2, 10]",differentiation of further iPS and ES cell clones into intermediate mesoderm cells [3],activity relative to all-trans retinoic acid (ATRA) [4],cytotoxicity relative to ATRA [5],further differentiation of obtained OSR1 positive cells [6],luminal structure formation from OSR1 positive cells by forming sphere [7],luminal structure formation from OSR1 positive cells by mixed culture with organ [8]
"CC1(C)CCC(C)(C)c2cc(C(=O)Nc3ccc(C(=O)O)cc3)ccc21 [AM580, 4-[[(5,6,7,8-tetrahydro-5,5,8,8-tetramethyl-2-naphthalenyl)carbonyl]amino]-benzoic acid]",OSR1-positive cells were successfully induced,8,OSR1-positive cells were successfully induced,OSR1-positive cells were successfully induced,could be differentiated into intermediate mesoderm cells,higher than that of all-trans retinoic acid (ATRA),lower cytotoxicity compared with ATRA,–,–,–
"C/C(=C\c1ccc(C(=O)O)cc1)c1ccc2c(c1)C(C)(C)CCC2(C)C [TTNPB, 4-[(1E)-2-(5,6,7,8-tetrahydro-5,5,8,8-tetramethyl-2-naphthalenyl)-1-propen-1-yl]-benzoic acid]",OSR1-positive cells were successfully induced,8,OSR1-positive cells were successfully induced,OSR1-positive cells were successfully induced,could be differentiated into intermediate mesoderm cells,higher than that of all-trans retinoic acid (ATRA),lower cytotoxicity compared with ATRA,could be further differentiated into renal precursor cells,luminal structure could be constructed,luminal structure could be constructed
